Experimental data: US12473289B2, “Heterocyclic compounds as delta-5 desaturase inhibitors and methods of use” (Amgen Inc., priority 2019, dated 2025)

Columns and labels:
Delta-5-Desaturase (D5D) [1] = molecular target: Delta-5-Desaturase (D5D) (Homo sapiens (Human), UniProt O60427); experiment: In vitro measurement of Delta-5-Desaturase inhibitory activity using DGLA-CoA and Arachidonyl-CoA mass spectrometric assays; format: biochemical; details: membrane preparations of D5D-overexpressing HEK293 6E cells; averaged over at least two independent runs
Method in brief: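 DGLA-CoA and arachidonyl-CoA were read by RapidFire SPE triple-quad MS (negative mode, MRM) after a 1 h ambient-temperature reaction quenched with acetonitrile. Enzyme was D5D-overexpressing HEK293 6E membranes at 10 μg/mL final; substrate solution held 0.01 mM DGLA plus NADH, ATP and CoA. Inhibition was referenced to DMSO and no-enzyme wells; 4PL IC50.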

[2] = tested on: Diet-Induced Obese (DIO) mice; experiment: Assessment of D5D inhibitor in Diet-Induced Obese (DIO) mice; format: in vivo; details: for Blood glucose: day 52, 4-hour fasted; for Cholesterol / Insulin / LDL cholesterol / Triglycerides: day 52, plasma; for Fat mass / Lean mass: day 54, EchoMRI; for AA / DGLA: day 56, plasma; for Body weight / Liver weights / epididymal WAT / inguinal WAT: day 56
Description: Assessment of D5D) Inhibitor in Diet-Induced Obese (DIO) Mice
Thirty-six male C57BL/6J DIO mice (Jackson Laboratories, stock No.: 380050) fed high-fat diet (Research Diets, Inc., D12492) for 14 weeks. All animals were given free access to water and chow. Animals were acclimated to per os dosing for 3 days prior to the start of the experiment. Animals were randomized on body weight, fat mass, lean mass, and blood glucose concentrations in to 4 groups of 8 animals per group. Animals were daily dosed per os with either: vehicle (2% hydroxypropyl methyl cellulose, 1% Tween 80 in water), Example 1-68 at 30 mg/kg, Example 1-34 at 10 mg/kg, and Example 1-27 at 10 mg/kg, all compounds were formulated in 2% hydroxypropyl methylcellulose, 1% Tween 80 in water. […] On day 52, a 4-hour fasted blood collection was performed, blood glucose was immediately measured, and plasma samples were created from the remaining blood and used to measure cholesterol, triglycerides, LDL cholesterol, and insulin. On day 54, body composition (EchoMRI) was determined. On day 56 the animals were sacrificed, and plasma was collected for measurement of DGLA and AA concentrations. Liver, epididymal white adipose tissue and inguinal white adipose tissue weights were recorded. Data was analyzed using GraphPad Prism v. 7.04.
All compounds led to weight loss over the course of the experiment (Table 28) compared to vehicle controls. Consistently fat and lean mass was reduced, along with lower inguinal and epididymal white adipose tissue (WAT) weights at necropsy. Blood glucose and plasma insulin levels were both reduced by the FADS1 inhibitors, along with reductions in plasma cholesterol, LDL cholesterol and triglycerides. Evidence of target engagement was established by observing increases in plasma DGLA and decreases in plasma AA.

Delta-5-Desaturase (D5D) [3] = molecular target: Delta-5-Desaturase (D5D) (Mus musculus (Mouse), UniProt Q920L1); experiment: In vivo measurement of Delta-5-Desaturase inhibitory activity (plasma AA/DGLA ratio in DIO mice); details: single oral dose 30 mg/kg, read-out: Average % D5D Inhibition expressed as Plasma Endogenous AA/DGLA Ratio
Experimental: In vivo Measurement of Delta-5-Desaturase Inhibitory Activity
Diet-induced obese (DIO; Jackson Laboratories strain #3800050) mice were used to screen for pharmacodynamic (PD) activity of test compounds. Generally, 14 to 24 week old DIO mice, were administered test compounds formulated in the vehicle of 2% hydroxypropyl methylcellulose (HPMC) and 1% Tween80. Animals were dosed on body weight by oral gavage with a single dose (30 mg/kg) for PD studies. Necropsy included plasma collection for PUFA analysis. 10 μl of plasma or standards diluted in surrogate matrix (65 g/l bovine serum albumin in Dulbecco's phosphate-buffered saline) were mixed with 10 μl of an internal standard (100 μM alpha-linolenic acid-d14 (ALA-d14, Cayman Chemical)) in a 96 well plate. 100 μl of 2N NAOH was added to the mixture for subsequent saponification at 65° C. for 1 hour. The mixture was then acidified with 50 μl of formic acid followed by two consecutive hexane extractions. Hexane (500 μl) was added and the mixture thoroughly mixed by vortexing, followed by centrifugation at 4,000 rpm for 15 min. The hexane phase was transferred to a new 1 ml 96 well plate and the remaining aqueous layer was extracted with hexane. The organic extracts were combined and the solvent was removed by placing the plate under nitrogen gas at 55° C. 250 μl of 90% methanol was added to the plate followed by vortexing for 2 minutes. 200 μl of the samples were transferred to a new 96 well polypropylene plate. The samples were analyzed on a LC-MS/MS for the following PUFAs: arachidonic acid (AA), dihomo-gamma-linolenic acid (DGLA), with ALA-d14 as the internal standard. Description of the LC-MS/MS method: 5 μl of sample was injected onto a Poroshell 120 EC-C18 3.0×50 mm, 1.9 μm id column. […] The PUFA peak areas were quantified by using the SCIEX Analyst software. […] The relative decrease of the AA/DGLA ratio of the test compound administered group relative to the vehicle administered group was calculated and used as an index for the degree of D5D inhibition.
The results presented in Table 27 were obtained using certain compounds described herein in the in vivo protocol described above.

[4] = day 50-52, 10 mg/kg daily per os

Delta-5-Desaturase (D5D) (Mus musculus (Mouse), UniProt Q920L1), sequence (Q920L1 whole entry): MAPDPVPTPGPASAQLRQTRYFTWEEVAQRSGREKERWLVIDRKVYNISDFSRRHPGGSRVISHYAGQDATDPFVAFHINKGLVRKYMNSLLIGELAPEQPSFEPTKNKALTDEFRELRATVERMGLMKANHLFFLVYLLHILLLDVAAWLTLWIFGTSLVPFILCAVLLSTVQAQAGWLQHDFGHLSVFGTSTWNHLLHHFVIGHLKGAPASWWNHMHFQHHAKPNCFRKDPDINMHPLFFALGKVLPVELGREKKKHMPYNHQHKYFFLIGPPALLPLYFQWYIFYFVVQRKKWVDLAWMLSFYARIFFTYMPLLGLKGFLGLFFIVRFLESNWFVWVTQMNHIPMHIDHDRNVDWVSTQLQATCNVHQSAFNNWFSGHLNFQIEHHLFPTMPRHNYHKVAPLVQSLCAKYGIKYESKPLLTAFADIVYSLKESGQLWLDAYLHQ
Delta-5-Desaturase (D5D) (Homo sapiens (Human), UniProt O60427), sequence (O60427 whole entry, species assumed): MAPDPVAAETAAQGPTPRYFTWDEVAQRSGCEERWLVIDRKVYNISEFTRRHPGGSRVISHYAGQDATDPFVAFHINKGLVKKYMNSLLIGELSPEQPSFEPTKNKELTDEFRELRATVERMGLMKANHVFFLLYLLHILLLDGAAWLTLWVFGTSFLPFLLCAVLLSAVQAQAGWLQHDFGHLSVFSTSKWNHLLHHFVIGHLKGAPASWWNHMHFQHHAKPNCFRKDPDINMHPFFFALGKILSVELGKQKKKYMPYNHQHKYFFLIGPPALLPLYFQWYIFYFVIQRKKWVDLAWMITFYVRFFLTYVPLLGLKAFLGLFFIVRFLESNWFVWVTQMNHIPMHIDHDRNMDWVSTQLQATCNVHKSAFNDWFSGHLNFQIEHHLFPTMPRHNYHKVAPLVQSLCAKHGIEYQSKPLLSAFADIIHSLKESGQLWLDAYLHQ

Q: How did the IC50 (Delta-5-Desaturase (D5D) [1]) turn out when N#Cc1ccn2c(=O)c(-c3cnn(CC(F)(F)C(F)(F)F)c3)c(C(F)(F)F)nc2c1 [Example 1-27, 4-oxo-3-(1-(2,2,3,3,3-pentafluoropropyl)-1H-pyrazol-4-yl)-2-(trifluoromethyl)-4H-pyrido[1,2-a]pyrimidine-8-carbonitrile] was run?
A: 18.7 nM

Q: And the Food consumption ([2]; day 0-2, 10 mg/kg daily per os)?
A: 2.5 ± 0.1 g/day

Q: And the Food consumption [2, 4]?
A: 3.1 ± 0.1 g/day

Q: What about the Blood glucose ([2]; 10 mg/kg daily per os) of the same molecule?
A: 178.8 ± 7.5 mg/dL

Q: What about the Cholesterol ([2]; 10 mg/kg daily per os) of the same molecule?
A: 191.3 ± 14.5 mg/dL

Q: What about the Insulin ([2]; 10 mg/kg daily per os) of the same molecule?
A: 3.3 ± 1.2 ng/mL

Q: And the LDL cholesterol ([2]; 10 mg/kg daily per os)?
A: 104.6 ± 9.1 mg/dL

Q: What about the Triglycerides ([2]; 10 mg/kg daily per os) of the same molecule?
A: 24.1 ± 1.2 mg/dL

Q: And the Fat mass ([2]; 10 mg/kg daily per os)?
A: 16.9 ± 0.5 g

Q: What about the Lean mass ([2]; 10 mg/kg daily per os) of the same molecule?
A: 28.1 ± 0.5 g

Q: And the AA ([2]; 10 mg/kg daily per os)?
A: 60.8 ± 1.9 µg/mL

Q: And the DGLA ([2]; 10 mg/kg daily per os)?
A: 310.3 ± 13.7 µg/mL

Q: And the Body weight ([2]; 10 mg/kg daily per os)?
A: 45.7 ± 1.1 g

Q: And the Liver weights ([2]; 10 mg/kg daily per os)?
A: 2.8 ± 0.2 g

Q: And the “epididymal WAT” value ([2]; 10 mg/kg daily per os)?
A: 1.8 ± 0.1 g

Q: What about the “inguinal WAT” value ([2]; 10 mg/kg daily per os) of the same molecule?
A: 1.9 ± 0.1 g

Q: What about the inhibition in vivo at 30 mg/kg (Delta-5-Desaturase (D5D) [3]) of the same molecule?
A: 78%

Q: What does the source list for COc1ccn2c(=O)c(-c3cnn(CC(F)(F)C(F)(F)F)c3)c(C(F)(F)F)nc2n1 [Example 1-34, 8-methoxy-3-(1-(2,2,3,3,3-pentafluoropropyl)-1H-pyrazol-4-yl)-2-(trifluoromethyl)-4H-pyrimido[1,2-a]pyrimidin-4-one]?
A: IC50 (Delta-5-Desaturase (D5D) [1]): 30.7 nM; Food consumption ([2]; day 0-2, 10 mg/kg daily per os): 2.2 ± 0.1 g/day; Food consumption [2, 4]: 3.0 ± 0.1 g/day; Blood glucose ([2]; 10 mg/kg daily per os): 150.5 ± 8.3 mg/dL; Cholesterol ([2]; 10 mg/kg daily per os): 177.1 ± 12.6 mg/dL; Insulin ([2]; 10 mg/kg daily per os): 0.6 ± 0.2 ng/mL; LDL cholesterol ([2]; 10 mg/kg daily per os): 88.6 ± 9.2 mg/dL; Triglycerides ([2]; 10 mg/kg daily per os): 15.6 ± 2.3 mg/dL; Fat mass ([2]; 10 mg/kg daily per os): 7.4 ± 0.9 g; Lean mass ([2]; 10 mg/kg daily per os): 26.6 ± 0.7 g; AA ([2]; 10 mg/kg daily per os): 29.4 ± 0.9 µg/mL; DGLA ([2]; 10 mg/kg daily per os): 161.4 ± 8.5 µg/mL; Body weight ([2]; 10 mg/kg daily per os): 34.7 ± 1.6 g; Liver weights ([2]; 10 mg/kg daily per os): 2.9 ± 0.3 g; epididymal WAT ([2]; 10 mg/kg daily per os): 0.9 ± 0.1 g; inguinal WAT ([2]; 10 mg/kg daily per os): 0.8 ± 0.1 g; inhibition in vivo at 30 mg/kg (Delta-5-Desaturase (D5D) [3]): 66%

Q: With COc1ccn2c(=O)c(-c3cnn(CC(F)(F)C(F)(F)F)c3)c(C(F)(F)F)nc2c1 [Example 1-68, 8-methoxy-3-(1-(2,2,3,3,3-pentafluoropropyl)-1H-pyrazol-4-yl)-2-(trifluoromethyl)-4H-pyrido[1,2-a]pyrimidin-4-one] as the molecule, how does the IC50 (Delta-5-Desaturase (D5D) [1]) read?
A: 11.6 nM

Q: And the Food consumption ([2]; day 0-2, 30 mg/kg daily per os)?
A: 2.7 ± 0.1 g/day

Q: And the Food consumption ([2]; day 50-52, 30 mg/kg daily per os)?
A: 2.6 ± 0.1 g/day

Q: What about the Blood glucose ([2]; 30 mg/kg daily per os) of the same molecule?
A: 146.6 ± 7.1 mg/dL

Q: And the Cholesterol ([2]; 30 mg/kg daily per os)?
A: 166.2 ± 7.8 mg/dL

Q: What about the Insulin ([2]; 30 mg/kg daily per os) of the same molecule?
A: 1.1 ± 0.2 ng/mL

Q: And the LDL cholesterol ([2]; 30 mg/kg daily per os)?
A: 86.5 ± 12.5 mg/dL

Q: And the Triglycerides ([2]; 30 mg/kg daily per os)?
A: 14.5 ± 1.0 mg/dL

Q: And the Fat mass ([2]; 30 mg/kg daily per os)?
A: 13.3 ± 1.0 g

Q: What about the Lean mass ([2]; 30 mg/kg daily per os) of the same molecule?
A: 26.7 ± 0.5 g

Q: What about the AA ([2]; 30 mg/kg daily per os) of the same molecule?
A: 38.0 ± 1.6 µg/mL

Q: And the DGLA ([2]; 30 mg/kg daily per os)?
A: 258.4 ± 8.5 µg/mL

Q: What about the Body weight ([2]; 30 mg/kg daily per os) of the same molecule?
A: 40.7 ± 1.5 g

Q: And the Liver weights ([2]; 30 mg/kg daily per os)?
A: 2.9 ± 0.2 g

Q: And the “epididymal WAT” value ([2]; 30 mg/kg daily per os)?
A: 1.6 ± 0.1 g

Q: What about the “inguinal WAT” value ([2]; 30 mg/kg daily per os) of the same molecule?
A: 1.6 ± 0.2 g

Q: What about the inhibition in vivo at 30 mg/kg (Delta-5-Desaturase (D5D) [3]) of the same molecule?
A: 80%

Q: For O=c1c(-c2ccc(OCC(F)(F)F)cc2)c(C(F)(F)F)nc2cc(CO)ccn12 [Example 13-3, 8-(hydroxymethyl)-3-(4-(2,2,2-trifluoroethoxy)phenyl)-2-(trifluoromethyl)-4H-pyrido[1,2-a]pyrimidin-4-one], which IC50 (Delta-5-Desaturase (D5D) [1]) is on record?
A: 5.6 nM

Q: What about the inhibition in vivo at 30 mg/kg (Delta-5-Desaturase (D5D) [3]) of the same molecule?
A: 77%

Q: For O=c1c(-c2ccc(OCC(F)(F)F)cc2)c(C(F)(F)F)nc2cc(CF)ccn12 [Example 13-4, 8-(fluoromethyl)-3-(4-(2,2,2-trifluoroethoxy)phenyl)-2-(trifluoromethyl)-4H-pyrido[1,2-a]pyrimidin-4-one], which IC50 (Delta-5-Desaturase (D5D) [1]) is on record?
A: 9.4 nM

Q: What about the inhibition in vivo at 30 mg/kg (Delta-5-Desaturase (D5D) [3]) of the same molecule?
A: 75%

Q: Nc1ccn2c(=O)c(-c3ccc(OCC(F)(F)F)cc3)c(C(F)(F)F)nc2n1 [Example 14-2, 8-amino-3-(4-(2,2,2-trifluoroethoxy)phenyl)-2-(trifluoromethyl)-4H-pyrimido[1,2-a]pyrimidin-4-one] was tested. Which IC50 (Delta-5-Desaturase (D5D) [1]) did it give?
A: 35.7 nM

Q: And the inhibition in vivo at 30 mg/kg (Delta-5-Desaturase (D5D) [3])?
A: 73%

Q: How did the IC50 (Delta-5-Desaturase (D5D) [1]) turn out when COc1ccn2c(=O)c(-c3ccc(OC(C)(C)C#N)cc3)c(C(F)(F)F)nc2c1 [Example 24, 2-(4-(8-Methoxy-4-oxo-2-(trifluoromethyl)-4H-pyrido[1,2-a]pyrimidin-3-yl)phenoxy)-2-methylpropanenitrile] was run?
A: 28.9 nM

Q: And the inhibition in vivo at 30 mg/kg (Delta-5-Desaturase (D5D) [3])?
A: 70%

Q: COc1cc2nc(C(F)(F)F)c(-c3cnn(CC(F)(F)C(F)(F)F)c3)c(=O)n2cc1F [Example 33, 7-Fluoro-8-methoxy-3-[1-(2,2,3,3,3-pentafluoropropyl)-1H-pyrazol-4-yl]-2-(trifluoromethyl)-4H-pyrido[1,2-a]pyrimidin-4-one] was tested. Which IC50 (Delta-5-Desaturase (D5D) [1]) did it give?
A: 20.9 nM

Q: And the inhibition in vivo at 30 mg/kg (Delta-5-Desaturase (D5D) [3])?
A: 71%

Q: O=c1c(-c2cnn(CC(F)(F)C(F)(F)F)c2)c(C(F)(F)F)nc2ccc(Cl)cn12 [Example 35, 7-Chloro-3-[1-(2,2,3,3,3-pentafluoropropyl)-1H-pyrazol-4-yl]-2-(trifluoromethyl)-4H-pyrido[1,2-a]pyrimidin-4-one] was tested. Which IC50 (Delta-5-Desaturase (D5D) [1]) did it give?
A: 3.8 nM

Q: And the inhibition in vivo at 30 mg/kg (Delta-5-Desaturase (D5D) [3])?
A: 75%

Q: Which IC50 (Delta-5-Desaturase (D5D) [1]) does the source give for O=c1c(-c2cnn(CC(F)(F)C(F)(F)F)c2)c(C(F)(F)F)nc2cc(OCF)ccn12 [Example 45, 8-(Fluoromethoxy)-3-[1-(2,2,3,3,3-pentafluoropropyl)-1H-pyrazol-4-yl]-2-(trifluoromethyl)-4H-pyrido[1,2-a]pyrimidin-4-one] here?
A: 10.1 nM

Q: What about the inhibition in vivo at 30 mg/kg (Delta-5-Desaturase (D5D) [3]) of the same molecule?
A: 62%
